Reference: patent EP4603105A1, “PHARMACEUTICAL COMPOSITION CONTAINING CYCLIC COMPOUND HAVING SELECTIVE KRAS INHIBITORY EFFECT AGAINST HRAS AND NRAS” (CHUGAI SEIYAKU KABUSHIKI KAISHA, priority 2022, dated 2024)
Read-outs that look alike come from different tables or passages of the source.

Experiments:
[1] = target: GDP-bound KRAS wild-type protein (Homo sapiens, UniProt P01116); test: Binding to KRAS by surface plasmon resonance (SPR), dissociation constant KD
Summary of the method: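 Single-cycle kinetics on GDP-loaded biotin-Avi RAS captured to ~100–300 RU; 75 s ascending injections, 100 µL/min, 30°C. HBS pH 7.4 + 10 mM MgCl2/10 µM GDP/4% DMSO. 1:1 fit, KD.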

[2] = target: GDP-bound NRAS wild-type protein (Homo sapiens, UniProt P01111); test: Binding to NRAS by surface plasmon resonance (SPR), KD and KD ratio to KRAS
Summary of the method: (§1)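 Affinity is measured by surface plasmon resonance at 30°C against captured, GDP-loaded RAS carrying a biotinylated Avi tag. Compounds are titrated by single-cycle kinetics, and KD comes from a 1:1 fit.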

HRAS wild-type protein = HRAS wild-type protein (Homo sapiens, UniProt P01112); test: Binding to HRAS by surface plasmon resonance (SPR), KD and KD ratio to KRAS
Summary of the method: as §1

[3] = system: human lung cancer strain NCI-H441; test: NCI-H441 cell proliferation inhibitory activity (CellTiter-Glo, 4 days); type: cell-based; conditions: read-out: NCl-H441 IC50
Summary of the method: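 Readout: […] after the ATP-based reagent. Compound: serial dilutions in dimethyl sulfoxide.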

[4] = Single Cycle Kinetics, 1:1 binding model
[5] = ratio of KD with respect to GDP-bound NRAS wild-type protein to KD with respect to KRAS
[6] = ratio of KD with respect to HRAS wild-type protein to KD with respect to KRAS
[7] = 50% proliferation inhibitory concentration, four days
[8] = ratio of KD for GDP-bound NRAS wild-type protein to KD for KRAS
[9] = ratio of KD for HRAS wild-type protein to KD for KRAS

Sequence of GDP-bound NRAS wild-type protein (P01111 whole entry): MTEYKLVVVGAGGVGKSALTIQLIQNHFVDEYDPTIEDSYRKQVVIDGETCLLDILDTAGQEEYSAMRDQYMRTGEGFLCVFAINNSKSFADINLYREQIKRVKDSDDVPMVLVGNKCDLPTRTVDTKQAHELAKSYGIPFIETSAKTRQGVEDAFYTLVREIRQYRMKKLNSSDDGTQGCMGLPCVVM
Sequence of GDP-bound KRAS wild-type protein (P01116 1-188 isoform P01116-2): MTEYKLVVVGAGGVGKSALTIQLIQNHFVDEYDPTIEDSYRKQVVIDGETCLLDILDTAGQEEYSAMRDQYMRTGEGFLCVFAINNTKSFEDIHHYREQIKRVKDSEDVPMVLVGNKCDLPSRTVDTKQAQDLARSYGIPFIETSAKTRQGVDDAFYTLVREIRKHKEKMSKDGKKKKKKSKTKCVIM
Sequence of HRAS wild-type protein (P01112 whole entry): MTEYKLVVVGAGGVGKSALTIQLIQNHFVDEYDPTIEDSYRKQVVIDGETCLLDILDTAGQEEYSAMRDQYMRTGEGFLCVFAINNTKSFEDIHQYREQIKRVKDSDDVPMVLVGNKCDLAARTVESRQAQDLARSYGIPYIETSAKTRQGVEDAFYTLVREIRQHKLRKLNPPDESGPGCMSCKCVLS

Kd [1, 4] | IC50 [3, 7] | Kd ([1]; Single Cycle Kinetics) | IC50 ([3]; NCI-H441 cells, 4 days) | Kd ([1]; 1:1 binding model) | Compound | NRAS /KRAS [2, 5] | HRAS /KRAS (HRAS wild-type protein; [6]) | NRAS /KRAS [2, 8] | HRAS /KRAS (HRAS wild-type protein; [9])
0.082 nM | 4.2 nM |  |  |  | CC[C@H](C)[C@@H]1NC(=O)[C@H](CC2CCC2)N(C)C(=O)C[C@@H](C(=O)N(C)C)N(C)C(=O)[C@H](C2CCCC2)N(C)C(=O)C2(CCCC2)NC(=O)[C@@H]2CCCN2C(=O)[C@H](CCc2cc(F)c(C(F)(F)F)c(F)c2)NC(=O)CN(C)C(=O)[C@H](Cc2ccc(C(F)(F)F)cc2)N2C[C@H](C)CC[C@@H](C2=O)N(C)C(=O)CN(C)C1=O [PP1386] | B (a compound having 3 or more and less than 10 is denoted as B) | B (a compound having 3 or more and less than 10 is denoted as B) |  | 
 |  | 0.099 nM | 3.4 nM |  | CCC[C@H]1C(=O)N[C@@H]([C@@H](C)CC)C(=O)N(C)CC(=O)N(C)[C@H]2C/C=C\CCN(C2=O)[C@@H](Cc2ccc(C)cc2)C(=O)N(C)CC(=O)N[C@@H](CCc2ccc(C(F)(F)F)c(OC)c2)C(=O)N2CC3(CC3)C[C@H]2C(=O)N(C)C2(CCC2)C(=O)N(C)[C@@H]([C@@H](C)CC)C(=O)N(C)[C@H](C(=O)N(C)C)CC(=O)N1C [PP3294] |  |  | A (a compound having 10 or more and less than 20 is denoted as A) | A (a compound having 10 or more and less than 20 is denoted as A)
0.17 nM | 42.7 nM |  |  |  | CCCC[C@H]1C(=O)NC2(CCC2)C(=O)N(C)[C@@H](C2CCCC2)C(=O)N(C)[C@H](C(=O)N(C)C)CC(=O)N(C)[C@@H](CC)C(=O)N[C@@H]([C@@H](C)CC)C(=O)N(C)CC(=O)N(C)[C@H]2C/C=C\CCN(C2=O)[C@@H](Cc2ccc(C(F)(F)F)cc2)C(=O)N(C)CC(=O)N[C@@H](CCc2cc(F)c(C(F)(F)F)c(F)c2)C(=O)N1C [PP1150] | AA (a compound having 20 or more is denoted as AA) | A (a compound having 10 or more and less than 20 is denoted as A) |  | 
 |  | 2.6 nM | 48.7 nM |  | CC[C@H](C)[C@@H]1NC(=O)[C@H](CC(C)C)N(C)C(=O)C[C@@H](C(=O)N(C)C)N(C)C(=O)[C@H](C2CCCC2)N(C)C(=O)C2(CCCC2)NC(=O)[C@@H]2CCN2C(=O)[C@H](CCc2cc(F)c(C(F)(F)F)c(F)c2)NC(=O)CN(C)C(=O)[C@H](Cc2ccc(C)cc2)N2CC/C=C(/F)C[C@@H](C2=O)N(C)C(=O)CN(C)C1=O [PP3522] |  |  | B (a compound having 3 or more and less than 10 is denoted as B) | B (a compound having 3 or more and less than 10 is denoted as B)
 |  |  | 132 nM | 0.97 nM | CCO[C@H](C)[C@@H]1NC(=O)[C@H](CC(C)C)N(C)C(=O)C[C@@H](C(=O)N(C)C)N(C)C(=O)[C@H](C2CCCC2)N(C)C(=O)C2(CC(C)(C)C2)NC(=O)[C@@H]2C[C@H](C)CN2C(=O)[C@H](CCc2ccc(C(F)(F)F)c(OC)c2)NC(=O)CN(C)C(=O)[C@H](Cc2ccc(C)cc2)N2CC/C=C\C[C@@H](C2=O)N(C)C(=O)[C@@H]2CCCN2C1=O [PP2418] |  |  | A (a compound having 10 or more and less than 20 is denoted as A) | B (a compound having 3 or more and less than 10 is denoted as B)
 |  | 4 nM | 162 nM |  | CCCO[C@@H]1C[C@H]2C(=O)NC3(CC(C)(C)C3)C(=O)N(C)[C@@H](C3CCCC3)C(=O)N(C)[C@H](C(=O)N(C)CC)CC(=O)N(C)[C@@H](COCC)C(=O)N[C@@H]([C@@H](C)CC)C(=O)N3C[C@@H](C)C[C@H]3C(=O)N(C)[C@H]3C/C=C\CCN(C3=O)[C@@H](Cc3ccc(C)cc3)C(=O)N(C)CC(=O)N[C@@H](CCc3ccc(C(F)(F)F)c(Cl)c3)C(=O)N2C1 [PP3464] |  |  | A (a compound having 10 or more and less than 20 is denoted as A) | A (a compound having 10 or more and less than 20 is denoted as A)
 |  | 4.2 nM | 34.7 nM |  | C=C(C)C[C@H]1C(=O)N(C)[C@H](C(=O)N(C)C)CC(=O)N(C)[C@@H](CC(C)C)C(=O)N[C@@H]([C@@H](C)CC)C(=O)N2CCC[C@H]2C(=O)N(C)[C@H]2C/C=C\CCN(C2=O)[C@@H](Cc2ccc(C)cc2)C(=O)N(C)CC(=O)N[C@@H](CCc2cc(F)c(C(F)(F)F)c(F)c2)C(=O)N2C[C@H](OCC)C[C@H]2C(=O)N(C)C2(CCC2)C(=O)N1C [PP3351] |  |  | A (a compound having 10 or more and less than 20 is denoted as A) | A (a compound having 10 or more and less than 20 is denoted as A)
 |  |  | 8.5 nM | 0.17 nM | CCC[C@H]1C(=O)N[C@@H]([C@@H](C)CC)C(=O)N(C)CC(=O)N(C)[C@H]2C/C=C\CCN(C2=O)[C@@H](Cc2ccc(C(F)(F)F)cc2)C(=O)N(C)CC(=O)N[C@@H](CCc2ccc(Cl)c(Cl)c2)C(=O)N2C[C@H](OCC)C[C@H]2C(=O)NC2(CC(C)(C)C2)C(=O)N(C)[C@@H](CC(C)(C)C)C(=O)N(C)[C@H](C(=O)N(C)C)CC(=O)N1C [PP2738] |  |  | AA (a compound having 20 or more is denoted as AA) | A (a compound having 10 or more and less than 20 is denoted as A)
 |  |  | 86.7 nM | 1.1 nM | CCC(CC)[C@H]1C(=O)N(C)[C@H](C(=O)N(C)C)CC(=O)N(C)[C@@H](COC)C(=O)N[C@@H]([C@@H](C)CC)C(=O)N2CCC[C@H]2C(=O)N(C)[C@H]2C/C=C\CCN(C2=O)[C@@H](Cc2ccc(C(F)(F)F)cc2)C(=O)N(C)CC(=O)N[C@@H](CCc2ccc(Cl)c(Cl)c2)C(=O)N2C[C@H](OC3CCC3)C[C@H]2C(=O)NC2(CC(C)(C)C2)C(=O)N1C [PP2645] |  |  | AA (a compound having 20 or more is denoted as AA) | A (a compound having 10 or more and less than 20 is denoted as A)
 |  |  | 207 nM | 4.6 nM | CCC[C@H]1C(=O)N[C@@H](CC(C)C)C(=O)N(CC)CC(=O)N(C)[C@H]2C/C=C\CCN(C2=O)[C@@H](Cc2ccc(C)cc2)C(=O)N(C)CC(=O)N[C@@H](CCc2ccc(C(F)(F)F)c(Cl)c2)C(=O)N2C[C@H](OCC)C[C@H]2C(=O)NC2(CC(C)(C)C2)C(=O)N(C)[C@@H](C2CCCC2)C(=O)N(C)[C@H](C(=O)N(C)C)CC(=O)N1C [PP2528] |  |  | A (a compound having 10 or more and less than 20 is denoted as A) | B (a compound having 3 or more and less than 10 is denoted as B)
 |  |  | 4.5 nM | 0.062 nM | CCCOC[C@H]1C(=O)N[C@@H]([C@@H](C)CC)C(=O)N2CCC[C@H]2C(=O)N(C)[C@H]2C/C=C\CCN(C2=O)[C@@H](Cc2ccc(C)cc2)C(=O)N(C)CC(=O)N[C@@H](CCc2ccc(C(F)(F)F)c(OC)c2)C(=O)N2C[C@@H](C)C[C@H]2C(=O)N(C)C2(CCC2)C(=O)N(C)[C@@H](C2CCCC2)C(=O)N(C)[C@H](C(=O)N(C)C)CC(=O)N1C [PP2369] |  |  | A (a compound having 10 or more and less than 20 is denoted as A) | B (a compound having 3 or more and less than 10 is denoted as B)
 |  |  | 7.5 nM | 0.062 nM | CCOC[C@H]1C(=O)N[C@@H]([C@@H](C)CC)C(=O)N2CCC[C@H]2C(=O)N(C)[C@H]2C/C=C\CCN(C2=O)[C@@H](Cc2ccc(C(F)(F)F)cc2)C(=O)N(C)CC(=O)N[C@@H](CCc2ccc(C(F)(F)F)c(OC)c2)C(=O)N2C[C@@H](C)C[C@H]2C(=O)N(C)C2(CCC2)C(=O)N(C)[C@@H](C2CCCC2)C(=O)N(C)[C@H](C(=O)N(C)C)CC(=O)N1C [PP2363] |  |  | A (a compound having 10 or more and less than 20 is denoted as A) | B (a compound having 3 or more and less than 10 is denoted as B)
